Assay results published in patent publication US10597388B2, “Pyridazinone herbicides” (FMC CORPORATION, priority 2014, dated 2020).

Assays:
Test in all cases: Test E greenhouse herbicide test, pre- and postemergence
Type in all cases: in vivo
[1] = system: ragweed (common ragweed, Ambrosia elatior)
Procedure, shortened: (§1)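 Seeds were sown in silt loam and sprayed preemergence with compound in a non-phytotoxic solvent mix containing surfactant; for postemergence, plants at 2 to 18 cm (1- to 4-leaf stage) in peat-based potting medium were sprayed with the same formulation. After 14 to 21 d in a greenhouse, injury was rated visually against controls (0–100).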

[2] = system: nutsedge, yellow (yellow nutsedge, Cyperus esculentus); details: Preemergence
Procedure, shortened: as §1

[3] = system: Italian ryegrass (Lolium multiflorum)
Procedure, shortened: as §1

[4] = system: sandbur (southem sandbur, Cenchrus echinatus)
Procedure, shortened: as §1

[5] = system: horseweed (Conyza canadensis)
Procedure, shortened: as §1

[6] = system: foxtail, green (green foxtail, Setaria viridis); details: Preemergence
Procedure, shortened: as §1

[7] = system: crabgrass, Brazilian (Brazilian crabgrass, Digitaria horizontalis)
Procedure, shortened: as §1

[8] = system: barnyardgrass (Echinochloa crus-galli)
Procedure, shortened: as §1

[9] = system: goosegrass (Eleusine indica); details: Preemergence
Procedure, shortened: as §1

[10] = system: momingglory (Ipomoea coccinea); details: Preemergence
Procedure, shortened: as §1

[11] = system: panicum, fall (fall panicum, Panicum dichotomiflorum)
Procedure, shortened: as §1

corn (Zea mays) = system: corn (Zea mays)
Procedure, shortened: as §1

soybean (Glycine max) = system: soybean (Glycine max)
Procedure, shortened: as §1

[12] = system: arrowleaf sida (Sida rhombifolia)
Procedure, shortened: as §1

[13] = system: dayflower (Virginia (VA) dayflower, Commelina virginica)
Procedure, shortened: as §1

[14] = 62 g ai/ha, Postemergence, scale 0 to 100 (0 no effect, 100 complete control)
[15] = 62 g ai/ha, Preemergence, scale 0 to 100 (0 no effect, 100 complete control)
[16] = 125 g ai/ha, Postemergence, scale 0 to 100 (0 no effect, 100 complete control)
[17] = 125 g ai/ha, Preemergence, scale 0 to 100 (0 no effect, 100 complete control)
[18] = 250 g ai/ha, Postemergence, scale 0 to 100 (0 no effect, 100 complete control)
[19] = Postemergence, 31 g ai/ha, visual, scale 0 no effect to 100 complete control
[20] = Preemergence, 31 g ai/ha, scale 0 to 100, 0 no effect, 100 complete control
[21] = Preemergence, 250 g ai/ha, visual, scale 0 no effect to 100 complete control
[22] = 62 g ai/ha, scale 0 to 100 (0 no effect, 100 complete control)
[23] = 125 g ai/ha, scale 0 to 100 (0 no effect, 100 complete control)
[24] = 250 g ai/ha, visual, scale 0 no effect to 100 complete control
[25] = 31 g ai/ha, scale 0 to 100, 0 no effect, 100 complete control

## Cc1ccc2ccccc2c1-c1c(OC(=O)OC(C)C)c(C)nn(C)c1=O [Compound 72]
[1]; [14]
  Plant response rating, Ragweed: 90
[1]; [15]
  Plant response rating, Ragweed: 90
[1]; [16]
  Plant response rating, Ragweed: 90
[1]; [17]
  Plant response rating, Ragweed: 90
[1]; [18]
  Plant response rating, Ragweed: 95
[1]; [19]
  Plant response rating, Ragweed: 85
[1]; [20]
  Plant response rating, Ragweed: 0
[1]; [21]
  Plant response rating, Ragweed: 100
[2]; [22]
  Plant response rating, Nutsedge, Yellow: 20
[2]; [23]
  Plant response rating, Nutsedge, Yellow: 30
[2]; [24]
  Plant response rating, Nutsedge, Yellow: 35
[3]; [14]
  Plant response rating, Ryegrass, Italian: 80
[3]; [15]
  Plant response rating, Ryegrass, Italian: 90
[3]; [16]
  Plant response rating, Ryegrass, Italian: 85
[3]; [17]
  Plant response rating, Ryegrass, Italian: 100
[3]; [18]
  Plant response rating, Ryegrass, Italian: 90
[3]; [19]
  Plant response rating, Ryegrass, Italian: 80
[3]; [20]
  Plant response rating, Ryegrass, Italian: 90
[3]; [21]
  Plant response rating, Ryegrass, Italian: 100
[4]; [14]
  Plant response rating, Sandbur: 70
[4]; [15]
  Plant response rating, Sandbur: 35
[4]; [16]
  Plant response rating, Sandbur: 75
[4]; [17]
  Plant response rating, Sandbur: 60
[4]; [18]
  Plant response rating, Sandbur: 80
[4]; [19]
  Plant response rating, Sandbur: 60
[4]; [20]
  Plant response rating, Sandbur: 0
[4]; [21]
  Plant response rating, Sandbur: 70
[5]; [14]
  Plant response rating, Horseweed: 60
[5]; [15]
  Plant response rating, Horseweed: 100
[5]; [16]
  Plant response rating, Horseweed: 75
[5]; [17]
  Plant response rating, Horseweed: 100
[5]; [18]
  Plant response rating, Horseweed: 70
[5]; [19]
  Plant response rating, Horseweed: 60
[5]; [20]
  Plant response rating, Horseweed: 0
[5]; [21]
  Plant response rating, Horseweed: 100
[6]; [22]
  Plant response rating, Foxtail, Green: 35
[6]; [23]
  Plant response rating, Foxtail, Green: 65
[6]; [25]
  Plant response rating, Foxtail, Green: 30
[6]; [24]
  Plant response rating, Foxtail, Green: 70
[7]; [14]
  Plant response rating, Crabgrass, Brazil: 40
[7]; [15]
  Plant response rating, Crabgrass, Brazil: 60
[7]; [16]
  Plant response rating, Crabgrass, Brazil: 60
[7]; [17]
  Plant response rating, Crabgrass, Brazil: 90
[7]; [18]
  Plant response rating, Crabgrass, Brazil: 70
[7]; [19]
  Plant response rating, Crabgrass, Brazil: 50
[7]; [20]
  Plant response rating, Crabgrass, Brazil: 50
[7]; [21]
  Plant response rating, Crabgrass, Brazil: 98
[8]; [14]
  Plant response rating, Barnyardgrass: 40
[8]; [15]
  Plant response rating, Barnyardgrass: 30
[8]; [16]
  Plant response rating, Barnyardgrass: 40
[8]; [17]
  Plant response rating, Barnyardgrass: 50
[8]; [18]
  Plant response rating, Barnyardgrass: 50
[8]; [19]
  Plant response rating, Barnyardgrass: 30
[8]; [20]
  Plant response rating, Barnyardgrass: 0
[8]; [21]
  Plant response rating, Barnyardgrass: 50
[9]; [22]
  Plant response rating, Goosegrass: 40
[9]; [23]
  Plant response rating, Goosegrass: 60
[9]; [25]
  Plant response rating, Goosegrass: 20
[9]; [24]
  Plant response rating, Goosegrass: 80
[10]; [22]
  Plant response rating, Morningglory: 30
[10]; [23]
  Plant response rating, Morningglory: 80
[10]; [25]
  Plant response rating, Morningglory: 20
[10]; [24]
  Plant response rating, Morningglory: 95
[11]; [14]
  Plant response rating, Panicum, Fall: 80
[11]; [15]
  Plant response rating, Panicum, Fall: 80
[11]; [16]
  Plant response rating, Panicum, Fall: 80
[11]; [17]
  Plant response rating, Panicum, Fall: 90
[11]; [18]
  Plant response rating, Panicum, Fall: 85
[11]; [19]
  Plant response rating, Panicum, Fall: 75
[11]; [20]
  Plant response rating, Panicum, Fall: 75
[11]; [21]
  Plant response rating, Panicum, Fall: 98
Corn (Zea mays); [14]
  Plant response rating, Corn: 10
Corn (Zea mays); [15]
  Plant response rating, Corn: 0
Corn (Zea mays); [16]
  Plant response rating, Corn: 20
Corn (Zea mays); [17]
  Plant response rating, Corn: 0
Corn (Zea mays); [18]
  Plant response rating, Corn: 30
Corn (Zea mays); [19]
  Plant response rating, Corn: 0
Corn (Zea mays); [20]
  Plant response rating, Corn: 0
Corn (Zea mays); [21]
  Plant response rating, Corn: 0
Soybean (Glycine max); [14]
  Plant response rating, Soybean: 30
Soybean (Glycine max); [15]
  Plant response rating, Soybean: 0
Soybean (Glycine max); [16]
  Plant response rating, Soybean: 30
Soybean (Glycine max); [17]
  Plant response rating, Soybean: 0
Soybean (Glycine max); [18]
  Plant response rating, Soybean: 50
Soybean (Glycine max); [19]
  Plant response rating, Soybean: 25
Soybean (Glycine max); [20]
  Plant response rating, Soybean: 0
Soybean (Glycine max); [21]
  Plant response rating, Soybean: 15
[12]; [14]
  Plant response rating, Arrowleaf Sida: 75
[12]; [15]
  Plant response rating, Arrowleaf Sida: 35
[12]; [16]
  Plant response rating, Arrowleaf Sida: 80
[12]; [17]
  Plant response rating, Arrowleaf Sida: 85
[12]; [18]
  Plant response rating, Arrowleaf Sida: 90
[12]; [19]
  Plant response rating, Arrowleaf Sida: 70
[12]; [20]
  Plant response rating, Arrowleaf Sida: 20
[12]; [21]
  Plant response rating, Arrowleaf Sida: 65
[13]; [14]
  Plant response rating, Dayflower, VA: 65
[13]; [15]
  Plant response rating, Dayflower, VA: 15
[13]; [16]
  Plant response rating, Dayflower, VA: 80
[13]; [17]
  Plant response rating, Dayflower, VA: 50
[13]; [18]
  Plant response rating, Dayflower, VA: 80
[13]; [19]
  Plant response rating, Dayflower, VA: 60
[13]; [20]
  Plant response rating, Dayflower, VA: 0
[13]; [21]
  Plant response rating, Dayflower, VA: 50
